Data on one substance can be found in patent US10603385B2, “Methods and compositions for templated assembly of nucleic acid specific heterocompounds” (priority 2013, dated 2020).

The assay deals with Caski cells. The assay is described as follows: Azide-cyclooctyne templated assembly on HPV16 E6/E7 in transfected living cells, sandwich detection of ligated product. Format: cell-based, human. As to conditions: Lipofectamine 2000 transfection, 24 hours after transfection. Here is the method: A set of corresponding reactants specific for the HPV16 E6/E7 gene were transfected into Caski cells to evaluate non-traceless nucleic acid templated assembly on tumor-associated targets in living cells. Sandwich enzymatic detection was used to confirm that templated assembly ligation product was preferentially formed in Caski cells rather than related cell lines lacking HPV16 E6/E7 sequence
Caski and HeLa cell lines were cultured in DMEM medium with 10% heat inactivated fetal bovine serum. For each experimental condition, 1×10^6 cells were plated in a T-25 flask 24 hours before transfection. A flask from each cell line was transfected with both templated assembly reactants (experimental), and Caski flasks were also transfected with each one of the reactants in isolation as well (negative controls).
Lipofectamine 2000 (Invitrogen) was used as the transfection reagent in accordance with the manufacturer's instructions Immediately prior to transfection, cell flasks were washed with 1×PBS and Optimem serum-free medium was added as the growth medium. […] Separately, 11 uL of Lipofectamine 2000 was incubated with 275 uL of Optimem serum-free medium for 15 minutes. […] 500 uL of the Oligo-3.1-Lipofectamine transfection solution was then dispensed to the experimental flask. […]

For “5′-FAM-CCAGAUGUCUUUGCU-Azide-3′ [Oligo-3.1]”, the “Corrected Absorbance A450” value is 0.003.
